Assay results from ChEMBL document CHEMBL1130808, “Prediction of the GTPase activities by using the semiempirical molecular orbital theory” (Bioorg Med Chem Lett, 1998).

assay: Effect on rate of GTP hydrolysis in the GTP binding protein ras p21

Q: Which krel does the source give for CCC[C@H](N)C(=O)O here?
A: 0.98

Q: With CNC[C@H](N)C(=O)O as the compound, how does the krel read?
A: 1

Q: For CC(C)[C@H](N)C(=O)O, which krel is on record?
A: 1.02

Q: Which krel does the source give for C[C@H](N)C(=O)O here?
A: 1.04
